Drawing on a melting point compilation (Tetko et al.; mined from patent text by program, amines drawn as free bases though some values may be those of a salt), this text covers melting point for 86 compounds.

By melting point is commonly meant the temperature, or range, at which the solid turns liquid.

Each structure is given as a SMILES string.

Compound `O=C(CCc1oc(-n2cncn2)nc1-c1ccc(Cl)cc1)NCCCl` gave a melting point of 157 to 158 °C. `COc1ccc(-c2ncn(CCC(C)(C)NCC(O)c3ccc(O)c(CO)c3)n2)cc1` (stereo unspecified) gave a melting point of 142 to 145 °C. Next, `C=C(C)C(=O)NCCCCCC(=O)Nc1cc(Cl)c(C)c(Cl)c1O`: 111 to 115 °C; `CCOC(=O)Cn1nnc(-c2cccc(OCc3ccc4ccccc4n3)c2)n1`: 111 to 113 °C.

For the compound `COC(=O)c1sc2c(c1N=CN(C)C)c1ccccc1c(=O)n2-c1ccccc1`, the melting point is 225 to 227 °C.

`CC(O)C(CCCc1ccccc1)n1ncc2c(=O)[nH]c(Cc3ccc(F)cc3)nc21` (stereo unspecified) showed a melting point of 103 °C. In turn, `COc1cc(NC(C)CCCN2C(=O)c3ccccc3C2=O)c2nccc(C=Cc3cccc(C(F)(F)F)c3)c2c1` (stereo unspecified) returned a melting point of 154 to 156 °C. `C(=C\c1cc(/C=C/c2ccccc2OCc2ccccn2)[nH]n1)/c1ccc2[nH]ccc2c1` displayed a melting point of 220 to 223 °C. The value for `COc1ccnc(CCc2nc3cc(-c4ccc(S(=O)(=O)NCc5ccccc5)cc4)cnc3[nH]2)c1` was 211 to 212 °C; that for `Cn1ccc(=O)c(OCc2ccccc2)c1C(=O)c1cccnc1` was 210 to 216 °C.

For `Cc1oc(-c2ccc(Cl)cc2)nc1COc1cccc(CN(O)C(N)=O)c1`, the melting point lay within 125 to 127 °C.

`O=C(O)c1ccc(-c2nc(-c3cccnc3)cs2)cc1` returned a melting point of 303 to 304 °C. As to `O=Cc1ccc(OC2OC(CO)C(O)C(O)C2O)cc1` (stereo unspecified), the melting point was found to be 177 °C. `CC(C)N(C(=O)C(C)C(C#N)(c1ccccc1)c1ccccc1)C(C)C` (stereo unspecified): the melting point was in the range of 195 to 205 °C.

As for `CCc1c(C(C#N)c2cc(C)cc(C)c2)[nH]c(=O)[nH]c1=O` (stereo unspecified), the melting point lay in the range of 105 to 107 °C.

Compound `CSC(C)=NOC(=O)NCSN(C(C)(C)C)P1(=O)OCC(C)(C)CO1` yielded a melting point of 134 °C.

The compound `Cc1cccc2c1C=Cc1ccccc1C2Cl` (stereo unspecified) registered a melting point of 158 to 160 °C. For the compound `CCOC(=O)C1=C(C)Nc2ccn(CCCN(C)C)c(=O)c2C1c1cccc([N+](=O)[O-])c1` (stereo unspecified), the melting point lay in the range of 212 to 213 °C.

`COC(=O)c1cccnc1C(=O)c1ccc(-n2ccnc2)cc1` displayed a melting point of 171 to 174 °C. `COc1cc2ccccc2c(OC)c1C(=O)O`: the melting point lay in the range of 119 to 123 °C.

As for `Cc1cccc2c(=O)cc(C(=O)Nc3ccc(CC4SC(=O)NC4=O)cc3)oc12` (stereo unspecified), the melting point lay in the range of 305 to 307 °C.

On to `CC(O)c1cc2c(o1)C(=O)c1cccc(O)c1C2=O` (stereo unspecified), for which the melting point fell in the range of 148 to 149 °C. The compound `CCc1c(C)cc(C(=O)NC(C(=O)OC)c2cccs2)c(=O)n1Cc1ccc(F)cc1` (stereo unspecified) had a melting point of 182 to 184 °C.

On to `CC(Cl)(Cl)C(NC(=O)c1cccc(Cl)c1)NC(=NC#N)Nc1ccc(C(F)(F)F)nc1` (stereo unspecified), for which the melting point lay within 191 to 192 °C. Next, `O=c1[nH]cnc2cc3c(cc12)OCCO3`: 275 °C; `CCNC(=O)c1cnn(-c2ccccc2)c1Br`: 158 to 160 °C; `CC(COc1ccc(CC2SC(=O)NC2=O)cc1)N1CC(Cc2ccccc2)OC1=O` (stereo unspecified): 60 to 70 °C. The value for `COCCOc1nc(C)nc(N2CCC(c3ccc(F)cc3)CC2)c1[N+](=O)[O-]` was 45 to 48 °C; that for `CC(F)(F)c1cccc(C[C@@H](NC(=O)c2ccc(F)c3ccccc23)[C@@H](O)c2ccc(F)cc2)c1` (racemic) was 182 to 183 °C.

Consider `N#Cc1ncn2c1COC(=O)c1ccccc1-2`, for which the melting point lay within 220 to 221 °C. Consider `COc1cc(C=NNC(=O)c2ccc(O)c(N)c2)cc(OC)c1OCc1ccc(C(C)C)cc1`, for which the melting point was 174 to 175 °C. For the compound `CN(C)CC#C[C@H]1CC[C@H](CN(C)c2ncc(Br)cn2)CC1`, the melting point fell in the range of 71 to 72 °C. On to `Cl/C(=C\n1ccnc1)c1ccc(Cl)cc1Cl`, for which the melting point is 59.1 °C.

The compound `O=S(=O)(c1ccc2ccccc2c1)N1C[C@H](O)C[C@H]1COCc1ccccc1` displayed a melting point of 124 to 126 °C. In turn, `Cc1cc(NC(=O)N(CC(C)C)CC(C)C)cc(C)c1S(=O)(=O)C[N+](=O)[O-]` showed a melting point of 153 to 155 °C. In the case of `CC(=O)S[C@H]1CO[C@@H](c2ccccc2)OC1`, the melting point lay within 94 to 95 °C. `CN(C)C(=S)n1cnc(S(=O)(=O)CC2CCCC2)n1`: the melting point was 65 °C.

Regarding `CCOC(=O)N1N=C(c2ccc([N+](=O)[O-])cc2)c2cc(Cl)c(Cl)cc2CC1C` (stereo unspecified), the melting point was in the range of 106 to 108 °C. `COc1ccccc1NC(=S)c1ccc(C(F)(F)F)cc1` displayed a melting point of 118 to 120 °C. Take `Nc1ccc(Cl)cc1C(=O)c1ccc(Cl)cc1`: the melting point is 106 to 107 °C.

The compound `COc1ccc(C2CCN(C(=O)CCC(=O)c3ccc4c(c3)CCNCC4)CC2)cc1` displayed a melting point of 99 to 100 °C. As for `Cc1ccc(N(C)c2ccco2)cc1O`, the melting point was in the range of 127 to 128 °C. `Cc1c(Nc2c(C#N)cnc3scc(C)c23)ccc2[nH]ccc12` showed a melting point of 261 °C. Compound `O=C(O)CNc1nc(NCc2ccc(NC(=O)c3ccc(F)cc3)cc2)c2ccccc2n1` gave a melting point of 235 °C. `CCOP(=O)(Cc1ccc(NC(=O)CCc2cnoc2-c2ccc(F)cc2)cc1)OCC` displayed a melting point of 134 to 135 °C. Turning to `CCCCCCCCC(O)Cc1ccc(OCc2ccccc2)c(OCc2ccccc2)c1` (stereo unspecified), the melting point lay within 55 to 57 °C. Regarding `Cc1ccc(-c2cncc(/C=C/C(=O)O)c2)cc1`, the melting point was 208 to 211 °C. The compound `Cc1oc(-c2ccccc2)nc1COc1ccc(CCc2nnn[nH]2)cc1` gave a melting point of 203 to 204 °C. Regarding `COC(=O)c1cc(NC(=O)c2ccccc2)c2cc(Cc3ccc(F)cc3)cnc2c1O`, the melting point was 247 to 249 °C. In the case of `O=C1CC[C@@H](C(=O)N[C@@H](CSCc2ccccc2)C(=O)O)N1`, the melting point is 181 to 183 °C. `COc1cc2c(cc1OC)C(C(S)(C#N)c1ccc(Cl)cc1)=NCC2` (stereo unspecified) came in with a melting point of 135 to 136 °C.

Turning to `CCn1c(=O)c2c(nc(/C=C/c3cc(O)c4c(c3)OCO4)n2C)n(CC)c1=O`, the melting point fell in the range of 265 to 268 °C.

`COc1cc(COc2nn(-c3ccccc3)cc2/C=C/C(=O)O)ccc1OCc1nc(-c2ccco2)oc1C` returned a melting point of 204 to 205 °C. Regarding `COc1cc2c(cc1O)CCN(C(=O)c1cccc(C#N)c1)C2=O`, the melting point fell in the range of 197 to 198 °C. Consider `CC(=O)Oc1ccc2c(c1)CC1(C)Cc3ccccc3C1=CC2C` (stereo unspecified), for which the melting point was in the range of 131 to 133 °C. Compound `COc1nc2ccccc2cc1/C=C/c1cc(CN2CCN(S(C)(=O)=O)CC2)ccc1[N+](=O)[O-]` registered a melting point of 156 to 157 °C.

Turning to `COc1ccccc1C=C1NC(=O)N(C)C1=O`, the melting point lay in the range of 189 to 190 °C. The value for `O=[N+]([O-])c1cnc(-c2ccccc2)nc1Cl` was 160 to 161 °C; that for `CC1(C)NC(=O)N(c2ccc(C#N)c(C(F)(F)F)c2)C1=N` was 228 °C; that for `CC(C)(C)c1cc(SCc2ccccc2C#N)cc(C(C)(C)C)c1O` was 79 to 82 °C. Regarding `NC(=O)CON=c1c2nccc3cccc(c32)n2cccc12`, the melting point turned out to be 252 °C. For `Cc1ccc(N)cc1Nc1nccc(-c2cccnc2)n1`, the melting point was in the range of 138 to 140 °C. Next, `N#Cc1ccc(-c2nc(CO)no2)cc1`: 138 to 140 °C; `CC(=O)SCCC(=O)[C@@H]1CCCC[C@H]1C(=O)O` (relative stereo): 65 to 68 °C; `CCCCc1c2ccccc2nc2cc(N)ccc12`: 108 to 110 °C. For the compound `COP(=O)(OC)OCN1C(=O)NC(c2ccccc2)(c2ccccc2)C1=O`, the melting point was 123 to 124 °C. For the compound `CCOC(=O)c1c(CN2CCCC2)nc2cc(OC)c(OC)cc2c1-c1ccc(OC)c(OC)c1`, the melting point was in the range of 139 to 140 °C. The value for `CNc1c(OC)cc(C(=O)OC)cc1OC` was 49 to 51 °C. For the compound `CN(C)CCNc1ccc(NCCN(CCO)CCO)c2c1C(=O)c1c(O)ccc(O)c1C2=O`, the melting point was 204 to 205 °C. For the compound `Cc1c(SCCCSCCn2c([N+](=O)[O-])cnc2C)ccnc1CNc1ncncc1Cl`, the melting point was 119 to 121 °C. The value for `COc1ccc(S(=O)(=O)C(C(=O)NO)C(C)C)cc1` (stereo unspecified) was 220 °C; that for `CCOc1cc(COc2nn(-c3ccccc3)cc2C=O)ccc1OCc1nc(-c2ccco2)oc1C` was 149 to 150 °C; that for `CCC(=O)c1c(CC)n(Cc2ccccc2Cl)c2cc(C#N)ccc12` was 115 to 118 °C. Consider `CCCNC(=O)c1cc2cc(OCCNC[C@H](O)COc3ccccc3)ccc2o1`, for which the melting point is 127 to 128 °C. `COC1=C(OC)C(=O)C2=C(CC(CCCOc3ccc(C(=O)N(C)C)cc3)C2)C1=O` yielded a melting point of 100 to 102 °C. `O=C1Nc2cccnc2N(C(=O)N2CCCC(CCCN3CCCCC3)C2)c2ccccc21` (stereo unspecified) registered a melting point of 123 to 125 °C. Next, `COc1cccc([C@H]2O[C@H](CC(=O)Nc3nc(C)c(C(=O)OC(C)(C)C)s3)C(=O)N(CC(C)(C)COC(C)=O)c3ccc(Cl)cc32)c1OC`: 211 to 213 °C; `C/C(=C\c1ccc(C(=O)OCCO)cc1)c1ccc2c(c1)C(C)(C)CCC2(C)C`: 138 to 139 °C; `COC(=O)c1cc(NC(=O)OC(C)(C)C)c([N+](=O)[O-])cc1C#Cc1ccccc1`: 173 °C. On to `CCCc1c(OCCCCCCc2cc(O)c(O)c(C(C)C)c2)ccc(C(=O)O)c1O`, for which the melting point is 138 to 140 °C. `CCCCN(CCCC)c1ccc(C=CC=CC=CC2=C(C#N)C(=C(C#N)C#N)OC2(C)C)c(OC)c1` displayed a melting point of 156 to 160 °C. Take `O=C(O)c1cc2c(s1)C(=O)CCC2`: the melting point is 174 to 175 °C. `CNC(=O)c1ccccc1Nc1nc(Nc2ccc3c(c2)CCN(C(C)C)CC3)ncc1Cl` had a melting point of 140 to 158 °C. Compound `COC(=O)C(c1ccccc1)N1CCC(c2ccc(NC(=O)c3ccccc3-c3ccc(C(F)(F)F)cc3)cc2)CC1` (stereo unspecified) registered a melting point of 138 °C. In turn, `CCCCCCCCC/C=C1\SC(=O)N(CC(=O)OC)C1=O` showed a melting point of 30 °C. Take `COc1cc2c(cc1Nc1ncc(C(F)(F)F)c(Nc3ccc(N4CCOCC4)cc3OC)n1)N(C)C(=O)OCC2`: the melting point lay in the range of 221 to 223 °C.
